# Assays:
# WRN [1] = target: T1, WRN (Homo sapiens, UniProt Q14191); assay: WRN ATPase activity assay (ADP-Glo); assay type: biochemical; settings: IC50, 1-hr pre-incubation with enzyme; geometric means of at least 2 independent replicates
# T1 construct: A His-tagged construct of WRN (AA S2-S1235) was produced and used for the ATPase assay; His; made in house; host or cells: Sf9 insect cells (baculovirus)
# Experimental: Compounds of the Examples were tested for WRN ATPase activity. WRN ATPase activity catalyzes ATP hydrolysis to produce ADP and phosphate. DNA encoding the target protein, 6×HIS-TEV-WRN-517-945, was produced, cloned and transfected as detailed in Example D. The amount of ADP produced was measured using ADP-Glo™ Kinase Assay kit from Promega Corporation in a Greiner white regular volume 384 wells assay plate (Greiner #781075). Data was normalized to a standard curve generated using various ADP concentrations and the corresponding luminescent signal intensities at each concentration. The assay conditions were optimized for enzyme concentration (WRN), substrate concentrations (ATP & dsDNA), and the linearity of the ATPase reaction, in the following assay buffer: 50 mM Tris-HCl, pH-7.5, 2 mM MgCl2, 50 mM NaCl, 1 mM EGTA, 0.01% P-20, 0.05% BSA, and 2 mM DTT prepared with nuclease free water.
# A serial dilution (1:3 scheme) of the compounds were prepared in neat DMSO, with 100 nL of the compounds dispensed in the 384 wells assay plate. An 1-hr pre-incubation of the compounds with enzyme was included. A His-tagged construct of WRN (AA S2-S1235) was produced and used for the ATPase assay. Maximum inhibition control wells were set up with the addition of only assay buffer, and no inhibition control wells were set up with neat DMSO without test compounds. The reaction was initiated by addition of 5 μL substrate mix (200 μM ultrapure ATP, and 50 nM dsDNA prepared in assay buffer) and incubated at 25° C. for 35 min. A forked dsDNA oligomer substrate was prepared by annealing equal amounts of oligo GPat-1 ([BHQ2][…]) and oligo GPat-2 ([…][TAM]) and was used as dsDNA substrate for WRN ATPase assay. A typical ATPase reaction consists of 25 nM forked dsDNA, 100 μM ATP, and 1 nM WRN prepared in assay buffer. The WRN ATPase reaction was stopped by the addition of 5 μL of ADP-Glo Reagent from ADP-Glo™ Kinase Assay kit and incubated for 40 min to deplete the unreacted ATP. Afterwards, 5 μL of Kinase Detection Reagent from the ADP-Glo™ Kinase Assay kit was added and incubated for 1 hr for the development of luminescence signal.
# Luminesce signals were measured on BMG PHERAstar FSX using luminescence protocol. Data analysis was carried out using Genedata software following % of control normalization. Fitting parameters include dose response IC50, Hill slope (n), maximum inhibition (S∞), and minimum inhibition (S0). The reported IC50 values for compounds in this invention are the geometric means of at least 2 independent replicates.
# WRN [2] = target: T1, WRN; assay: WRN Helicase activity assay (fluorescence DNA unwinding); assay type: biochemical; settings: IC50, 1-hr pre-incubation with enzyme; geometric means of at least 2 independent replicates
# Experimental: Compounds of the examples were tested for WRN helicase activity. DNA encoding the target protein, 6×HIS-TEV-WRN-517-945, was produced, cloned and transfected as detailed in Example D. To determine the inhibitory properties of the compounds, a 384 wells plate-based Helicase assay was set up to measure the extent of DNA unwinding (Helicase) activity of WRN. The WRN Helicase assay was designed to measure increase in fluorescence signal using a fluorescence based, donor-quencher paired forked dsDNA oligomer substrate (custom synthesis from Sigma-Aldrich) prepared by annealing equal amounts of oligo GPat-1 ([BHQ2][…]) and oligo GPat-2 ([…][TAM]). Continuous measurement of fluorescent signal was used to optimize the buffer conditions, concentration of enzyme (WRN), concentration of substrates (ATP & dsDNA), and the linearity of the Helicase reaction. All solutions were prepared in the following assay buffer: 50 mM Tris-HCl, pH-7.5, 2 mM MgCl2, 50 mM NaCl, 1 mM EGTA, 0.01% P-20, 0.05% BSA, and 2 mM DTT prepared with nuclease free water.
# A serial dilution (1:3 scheme) of the compounds was prepared in neat DMSO and 100 nL of the compounds was dispensed in the Greiner black low volume (Greiner #784076) 384 wells assay plate. An 1-hr pre-incubation of the compounds with enzyme was included. A His-tagged construct of WRN (AA S2-S1235) was produced and used for the ATPase assay. Maximum inhibition control wells were set up with the addition of only assay buffer, and no inhibition control wells were set up with neat DMSO without test compounds. The reaction was initiated by addition of 5 μL substrate mix (200 μM ultrapure ATP, and 50 nM dsDNA prepared in assay buffer) and incubated at 25° C. for 35 min. A typical Helicase reaction consists of 25 nM forked dsDNA, 100 μM ATP, and 1 nM WRN prepared in assay buffer. The WRN Helicase reaction was quenched by the addition of 5 μL ‘STOP’ solution containing 100 mM EDTA (final EDTA concentration 33.33 mM) prepared in assay buffer. The plates were read on BMG PHERAstar FSX using 540/590 module to measure an increase of fluorescence. Data analysis was carried out using the Genedata software following % of control normalization. Fitting parameters include dose response IC50, Hill slope (n), maximum inhibition (S∞), and minimum inhibition (S0). The reported IC50 values for compounds in this invention are the geometric means of at least 2 independent replicates.
# T1 sequence (Q14191 2-1235): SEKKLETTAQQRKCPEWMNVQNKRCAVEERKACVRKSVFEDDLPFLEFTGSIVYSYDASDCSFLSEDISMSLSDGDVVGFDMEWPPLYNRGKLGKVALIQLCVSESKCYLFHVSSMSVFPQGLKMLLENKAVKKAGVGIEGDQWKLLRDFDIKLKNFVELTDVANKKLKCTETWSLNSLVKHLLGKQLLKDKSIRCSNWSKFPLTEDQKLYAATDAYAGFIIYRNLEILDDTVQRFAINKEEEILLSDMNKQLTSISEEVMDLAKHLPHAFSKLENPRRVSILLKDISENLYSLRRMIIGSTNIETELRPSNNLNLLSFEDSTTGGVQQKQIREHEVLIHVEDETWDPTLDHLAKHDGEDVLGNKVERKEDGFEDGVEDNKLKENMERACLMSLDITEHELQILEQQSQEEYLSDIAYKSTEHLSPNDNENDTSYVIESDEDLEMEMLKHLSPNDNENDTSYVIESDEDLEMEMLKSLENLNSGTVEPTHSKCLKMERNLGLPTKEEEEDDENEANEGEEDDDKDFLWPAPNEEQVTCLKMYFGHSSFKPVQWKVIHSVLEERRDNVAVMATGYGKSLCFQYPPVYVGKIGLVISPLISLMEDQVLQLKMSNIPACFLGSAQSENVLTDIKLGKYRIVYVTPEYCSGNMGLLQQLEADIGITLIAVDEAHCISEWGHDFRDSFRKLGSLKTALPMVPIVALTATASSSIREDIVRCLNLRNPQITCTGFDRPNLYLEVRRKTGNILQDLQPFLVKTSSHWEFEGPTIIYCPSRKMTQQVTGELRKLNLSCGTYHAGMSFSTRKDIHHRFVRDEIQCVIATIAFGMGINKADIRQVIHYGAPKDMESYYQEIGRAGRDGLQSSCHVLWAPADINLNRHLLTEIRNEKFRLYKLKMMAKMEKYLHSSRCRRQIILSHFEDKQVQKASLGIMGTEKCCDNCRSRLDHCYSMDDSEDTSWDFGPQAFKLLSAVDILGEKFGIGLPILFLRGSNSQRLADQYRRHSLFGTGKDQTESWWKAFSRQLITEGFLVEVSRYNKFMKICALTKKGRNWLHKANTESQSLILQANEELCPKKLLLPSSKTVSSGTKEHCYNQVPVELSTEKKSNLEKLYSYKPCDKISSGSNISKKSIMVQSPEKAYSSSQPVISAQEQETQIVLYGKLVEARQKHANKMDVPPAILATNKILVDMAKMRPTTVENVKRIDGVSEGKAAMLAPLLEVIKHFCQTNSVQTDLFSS
SMILES,IC50 (WRN [1]) [nM],IC50 (WRN [2]) [nM]
"CCc1c(-c2ccccc2NC(=O)/C(C#N)=C\C(C)C)c(=O)n2nc(C3=CCOCC3)nc2n1CC(=O)Nc1ccc(C(F)(F)F)cc1 (single isomer, unassigned) [Example 4, (Z)-2-Cyano-N-(2-(2-(3,6-dihydro-2H-pyran-4-yl)-5-ethyl-7-oxo-4-(2-oxo-2-((4-(trifluoromethyl)phenyl)amino)ethyl)-4,7-dihydro-[1,2,4]triazolo[1,5-a]pyrimidin-6-yl)phenyl)-4-methylpent-2-enamide]",500 to 1000,500 to 1000
"CCOC(=O)/C=C/C(=O)Nc1ccccc1-c1c(CC)n(CC(=O)Nc2ccc(C(F)(F)F)cc2)c2nc(C3=CCOCC3)nn2c1=O [Example 3, Ethyl (E)-4-((2-(2-(3,6-dihydro-2H-pyran-4-yl)-5-ethyl-7-oxo-4-(2-oxo-2-((4-(trifluoromethyl)phenyl)amino)ethyl)-4,7-dihydro-[1,2,4]triazolo[1,5-a]pyrimidin-6-yl)phenyl)amino)-4-oxobut-2-enoate]",500 to 1000,1000 to 2000
"C=CC(=O)Nc1c(C)cccc1-c1c(CC)n(CC(=O)Nc2ccc(C(F)(F)F)cc2)c2nc(C3=CCOCC3)nn2c1=O [Example 7, N-(2-(2-(3,6-Dihydro-2H-pyran-4-yl)-5-ethyl-7-oxo-4-(2-oxo-2-((4-(trifluoromethyl)phenyl)amino)ethyl)-4,7-dihydro-[1,2,4]triazolo[1,5-a]pyrimidin-6-yl)-6-methylphenyl)acryl amide]",100 to 500,500 to 1000
"C=CC(=O)Nc1ccc(C)cc1-c1c(CC)n(CC(=O)Nc2ccc(C(F)(F)F)cc2)c2nc(C3=CCOCC3)nn2c1=O [Example 9, N-(2-(2-(3,6-Dihydro-2H-pyran-4-yl)-5-ethyl-7-oxo-4-(2-oxo-2-((4-(trifluoromethyl)phenyl)amino)ethyl)-4,7-dihydro-[1,2,4]triazolo[1,5-a]pyrimidin-6-yl)-4-methylphenyl)acryl amide]",500 to 1000,500 to 1000
"C=CC(=O)Nc1ccc(Cl)cc1-c1c(CC)n(CC(=O)Nc2ccc(C(F)(F)F)cc2)c2nc(C3=CCOCC3)nn2c1=O [Example 11, N-(4-Chloro-2-(2-(3,6-dihydro-2H-pyran-4-yl)-5-ethyl-7-oxo-4-(2-oxo-2-((4-(trifluoromethyl)phenyl)amino)ethyl)-4,7-dihydro-[1,2,4]triazolo[1,5-a]pyrimidin-6-yl)phenyl)acrylamide]",500 to 1000,500 to 1000
"C=CC(=O)N1CCCC=C1c1c(CC)n(CC(=O)Nc2ccc(C(F)(F)F)cc2)c2nc(C3=CCOCC3)nn2c1=O [Example 14, 2-(6-(1-Acryloyl-1,4,5,6-tetrahydropyridin-2-yl)-2-(3,6-dihydro-2H-pyran-4-yl)-5-ethyl-7-oxo-[1,2,4]triazolo[1,5-a]pyrimidin-4(7H)-yl)-N-(4-(trifluoromethyl)phenyl)acetamide]",< 100,< 100
"C=CC(=O)N1CCc2cccc(-c3c(CC)n(CC(=O)Nc4ccc(C(F)(F)F)cc4)c4nc(C5=CCOCC5)nn4c3=O)c21 [Example 15, 2-(6-(1-Acryloylindolin-7-yl)-2-(3,6-dihydro-2H-pyran-4-yl)-5-ethyl-7-oxo-[1,2,4]triazolo[1,5-a]pyrimidin-4(7H)-yl)-N-(4-(trifluoromethyl)phenyl)acetamide]",< 100,< 100

# Further lines, results first:
IC50 (WRN [1]) [nM],IC50 (WRN [2]) [nM],SMILES
< 100,< 100,"CCc1c(-c2ccccc2NC(=O)/C(C#N)=C/C(C)C)c(=O)n2nc(C3=CCOCC3)nc2n1CC(=O)Nc1ccc(C(F)(F)F)cc1 (single isomer, unassigned) [Example 5, (E)-2-Cyano-N-(2-(2-(3,6-dihydro-2H-pyran-4-yl)-5-ethyl-7-oxo-4-(2-oxo-2-((4-(trifluoromethyl)phenyl)amino)ethyl)-4,7-dihydro-[1,2,4]triazolo[1,5-a]pyrimidin-6-yl)phenyl)-4-methylpent-2-enamide]"
< 100,< 100,"C=CS(=O)(=O)Nc1ccccc1-c1c(CC)n(CC(=O)Nc2ccc(C(F)(F)F)cc2)c2nc(C3=CCOCC3)nn2c1=O [Example 2, 2-(2-(3,6-Dihydro-2H-pyran-4-yl)-5-ethyl-7-oxo-6-(2-(vinylsulfonamido)phenyl)-[1,2,4]triazolo[1,5-a]pyrimidin-4(7H)-yl)-N-(4-(trifluoromethyl)phenyl)acetamide]"
< 100,100 to 500,"C=CC(=O)N(C)c1ccccc1-c1c(CC)n(CC(=O)Nc2ccc(C(F)(F)F)cc2)c2nc(C3=CCOCC3)nn2c1=O [Example 6, N-(2-(2-(3,6-Dihydro-2H-pyran-4-yl)-5-ethyl-7-oxo-4-(2-oxo-2-((4-(trifluoromethyl)phenyl)amino)ethyl)-4,7-dihydro-[1,2,4]triazolo[1,5-a]pyrimidin-6-yl)phenyl)-N-methylacrylamide]"
< 100,< 100,"C=CC(=O)Nc1cc(C)ccc1-c1c(CC)n(CC(=O)Nc2ccc(C(F)(F)F)cc2)c2nc(C3=CCOCC3)nn2c1=O [Example 8, N-(2-(2-(3,6-Dihydro-2H-pyran-4-yl)-5-ethyl-7-oxo-4-(2-oxo-2-((4-(trifluoromethyl)phenyl)amino)ethyl)-4,7-dihydro-[1,2,4]triazolo[1,5-a]pyrimidin-6-yl)-5-methylphenyl)acryl amide]"
< 100,< 100,"C=CC(=O)Nc1cc(Cl)ccc1-c1c(CC)n(CC(=O)Nc2ccc(C(F)(F)F)cc2)c2nc(C3=CCOCC3)nn2c1=O [Example 10, N-(5-Chloro-2-(2-(3,6-dihydro-2H-pyran-4-yl)-5-ethyl-7-oxo-4-(2-oxo-2-((4-(trifluoromethyl)phenyl)amino)ethyl)-4,7-dihydro-[1,2,4]triazolo[1,5-a]pyrimidin-6-yl)phenyl)acrylamide]"
< 100,< 100,"C=CC(=O)Nc1cc(C(F)(F)F)ccc1-c1c(CC)n(CC(=O)Nc2ccc(C(F)(F)F)cc2)c2nc(C3=CCOCC3)nn2c1=O [Example 12, N-(2-(2-(3,6-Dihydro-2H-pyran-4-yl)-5-ethyl-7-oxo-4-(2-oxo-2-((4-(trifluoromethyl)phenyl)amino)ethyl)-4,7-dihydro-[1,2,4]triazolo[1,5-a]pyrimidin-6-yl)-5-(trifluoromethyl)phenyl)acrylamide]"
< 100,< 100,"C=CC(=O)Nc1cc(F)ccc1-c1c(CC)n(CC(=O)Nc2ccc(C(F)(F)F)cc2)c2nc(C3=CCOCC3)nn2c1=O [Example 13, N-(2-(2-(3,6-Dihydro-2H-pyran-4-yl)-5-ethyl-7-oxo-4-(2-oxo-2-((4-(trifluoromethyl)phenyl)amino)ethyl)-4,7-dihydro-[1,2,4]triazolo[1,5-a]pyrimidin-6-yl)-5-fluorophenyl)acryl amide]"

# — patent US20250333419A1, “BICYCLIC COMPOUNDS AS INHIBITORS OF WRN” (Incyte Corporation, priority 2023, published 2025)
